Reference: patent US4053632A, “Compounds of spiro-amine type and methods for their use” (priority 1971, dated 1977)
Converted amounts (≈) assume the structure as drawn. “Also recorded” adds a separate entry of the source. Read-outs that look alike come from different tables or passages of the source.

Key:
[1] = tested on: uptake of noradrenaline (cortex slices); assay: Inhibition of the uptake of tritiated noradrenaline in vivo; conditions: ip, read-out: Inhibition (50 %) of uptake in vivo, NA
Procedure: The animals were killed half or one hour after the administration of the drugs in vivo (i.p.). The slices, made from cortex, were preincubated for five minutes and incubated with 0.1 μmole per ml of ^3 H-noradrenaline for further five minutes. The incubation mixture consisted of 0.2 μmole of ^3 H-NA and the brain slices in 2 ml of Krebs-Henseleits buffer, pH 7.4. The radioactive ^3 H-NA taken up in the slices was extracted with ethanol and the amount was determined by liquid scintillation. The dose producing 50 per cent decrease of the active uptake (ED50) was determined graphically from dose response curves. At least four animals were used at each dose level.

catalepsy [2] = assay: Catalepsy; format: in vivo; conditions: rat
Description: (§1) Using the method and intensity scaring system described by Costall and Naylar, (7), the cataleptic properties of SIR 109 and chloropromazine were studied. Briefly, an animal was classed as cataleptic if it remained in an abnormal position for 15 seconds. Additionally, the duration the animal held this position was converted to a numerical scare as an indication of the intensity of the catalepsy.

Catalepsy [3] = format: in vivo
Description: as §1

[4] = tested on: uptake of 5-HT (midbrain slices); assay: Inhibition of the uptake of tritiated 5-HT in vivo; parameters: species or system mouse; conditions: Mus musculus, ip, 0.5 h; i.p., in vivo; read-out: Inhibition (50 %) of uptake in vivo, 5-HT
Procedure: The drugs were administered intraperitoneally half an hour before the animals were killed and the midbrain was taken out and sliced and incubated in a mixture consisting of, per 100 mg of brain slices, 0.2 μmole of ^3 H-5-HT and 1 μmole of glucose in 2 ml of Krebs-Henseleit buffer, pH 7.4. The incubation time was 5 minutes with 5 minutes of preincubation before ^3 H-5-HT was added. The radioactive ^3 H-5-HT taken up in the slices was extracted with ethanol and the amount was determined by liquid scintillation. The dose producing 50 per cent decrease of the active uptake (ED50) was determined graphically from dose response curves. Active uptake is defined as that part of the radioactive uptake which is inhibited by a high concentration of cocaine. All doses were given at least to four animals.

[5] = tested on: DA turnover / dopamine receptor; assay: Estimation of DA receptor blockade (DA turnover) in the rat brain; format: in vivo; conditions: for effect on DA turnover: in words; for minimal effective dose: ip, read-out: first significant dose, effect on brain dopamine level
Description: (§2) The estimation of catecholamine (CA) turnover was made by using the tyrosine hydroxylase inhibitor α-methyl tyrosine methyl ester (H 44/68) (4). This technique is based on the assumption that dopamine (DA) or noradrenaline (NA) receptor blockade will mediate an increase in CA turnover and result in lowered CA levels in the brain compared to H 44/68 alone. Since DA receptor blockade is assumed to be a biochemical correlate to antipsychotic action, this test gives a biochemical evidence for an antipsychotic effect. In this particular test the DA and NA levels in the brain were measured biochemically (5,6).

aggressive behavior = assay: Aggressive behavior (anti-aggressive test) in isolated mice; format: in vivo, mouse; conditions: for ED50: Mus musculus, ip, 1 h, read-out: Anti-aggresive test ED50; for effect on aggressive behavior: in words
Procedure: Anxiolytic effect was defined as a block of aggressive behavior in mice. Male mice kept isolated for 3 weeks or longer develop an aggressive behaviour when caged together. The method used followed that reported by Valzelli et al. (8) with the exception that two mice were tested together. The aggressiveness was scored during a five minute test according to the following scale:
0: the animals show no interest in each other except occasional nosing,
[…]: frequent vigorous nosing and tail twitching. The animals assume a fighting position and occasionally attack the partner -- no more than 3-4 times in the period of five minutes,
50: tail twitching, powerful attacks -- no more than 10 times during the test period,
75: the animals pursue their partners, attacking and biting for most of the time,
100: attacks over the entire period.
Controls administered with the solvent were tested. […] The animals were used for several experiments but with intervals of at least one week. Groups of 10 mice were used, and they were tested one hour after the administration of the drug. The animals were used as their own controls.

[6] = tested on: conditioned avoidance response (CAR); assay: Conditioned avoidance response in rats; format: in vivo, rat; conditions: for ED50: Rattus norvegicus, ip, 1 h, i.p.
Procedure: For this reason the conditioned avoidance test has been developed for initial screening of neuroleptics. Rats were trained to avoid electrical shock by jumping from one compartment to the other in a shuttle box. The conditioned stimulus consists of an auditory signal which after eight seconds was followed by the electrical shock. The rates were trained to a criterion of making eight out of ten responses correctly. The drugs were injected one hour before the test. The avoidance responses are expressed in percentage of those before administration. CD50 is the dose which reduces the avoidance response to 50% of control values.

[7] = tested on: uptake of 5-HT (midbrain slices); assay: Inhibition of the uptake of tritiated 5-HT in vitro (brain slices); format: biochemical, mouse
in vivo = conditions: mouse
Procedure: (§3) The compounds were given by intravenous route to 3 mice. […] Seizures, gait, sedation and grip strength were recorded.
(§4) Acute toxicity was tested by the intraveneous, intraperitoneal and oral routes of administration. […] During the oral route a behavioral scoring system was used in order to relate changes in behavior to dose. The LD50 values were determined graphically from log dose -- response curves based on four doses with three animals per dose. Peripheral parasympatholytic effect was tested in mice by observing the mydriatic effect after intravenous injection (9) (four doses with three animals per dose). PD200 refers to the dose which increases the pupil width by 200%.

mice [8] = assay: Acute toxicity in mice; conditions: in words
Procedure: as §3, §4

mice [9] = assay: Behavioral observation (ptosis, catatonia) in mice; format: in vivo, mouse
pupil width (mydriasis) = conditions: mouse, in vivo
Procedure: as §3, §4

[10] = tested on: NA turnover / noradrenaline receptor; assay: Estimation of NA receptor blockade (NA turnover) in the rat brain; format: in vivo; conditions: for minimal effective dose: ip, read-out: first significant dose, effect on brain noradrenaline level
Description: as §2

[11] = tested on: methamphetamine induced hyperactivity; assay: Antagonism of methamphetamine-induced hyperactivity; format: in vivo, mouse; conditions: mice, FIG. 1, in words
Procedure: Sedatives (e.g. barbiturates, benzodiazepines and propandiols) on the other hand generally potentiate the induced hyperactivity. The interaction with amphetamines consequently gives an indication of the mechanism of a drug. Male mice were pretreated with the test drug 30 minutes before the administration of methamphetamine 3 mg/kg i.p. After 20 minutes the spontaneous motor activity was measured for 20 minutes by an Animex activity meter, which can distinguish between slight and considerable motion. The animals were tested in groups of three and used only once. Control groups treated with saline alone or the test drug and saline according to the testing schedule were run simultaneously.

motor activity = assay: Motor activity in mice; format: in vivo, mouse; conditions: for ED50: Mus musculus, 1 h
Procedure: The exploratory activity of mice was recorded in a locomotion cage in which the movements were counted each time the animals cross-circuits on electrical current in the bottom plate. […] The animals were tested individually. Groups of six mice were used and the mice were only used once. The activity was expressed in percent of the activity of control groups ran simultaneously.
Sedative activity was defined as suppression of normal motor activity. The motor activity in mice was automatically recorded in a locomotion cage in which the movements are counted each time the animal short-circuits an electrical current in the bottom plate. […] The animals were tested individually. Groups of six mice were used. The activity was expressed in percent of the activity of control groups run simultaneously.

[12] = tested on: uptake of noradrenaline (cortex slices); assay: Inhibition of the uptake of tritiated noradrenaline in vitro (brain slices); format: biochemical; conditions: dl-noradrenaline 10^-7 M
[13] = tested on: conditioned avoidance response (CAR); conditions: general knowledge, in words; cited from earlier work
Solubility in water = format: physicochemical; conditions: hydrochloride
[14] = rat, after H 44/68 250 mg/kg i.p.

In the case of CN(C)C1C=CC2(CC1)c1ccccc1CCc1ccc(Cl)cc12 (racemic) [SIR 109, 3'-chloro-10', 11'-dihydro-4-(dimethylamino)spiro[2-cyclohexene-1,5'(5'H)-dibenzo[a,d]cycloheptene]], the ED50 [1] is reported as 40 mg/kg, the Catalepsy intensity score (catalepsy [2]) is reported as 0.75 and the cataleptic effect (catalepsy [2]; in words) is reported as “weak cataleptic effect in the rat; also recorded: intensity of catalepsy was considerably lower after SIR 109 compared to CPZ; also recorded: low cataleptic action”. The ED50 (Catalepsy [3]; in vivo, ip, rat) was 25 mg/kg, the ED50 [4] was > 40 mg/kg and the “effect on DA turnover” value [5] was “effects DA turnover at about the same dose; also recorded: about as potent as chlorpromazine”. For the same molecule, the minimal effective dose [5, 14] was 5 mg/kg, the ED50 (aggressive behavior; i.p., mice) was 0.27 mg/kg and the “effect on aggressive behavior” value (aggressive behavior; mice) was “potent at a dose which does not cause sedation; also recorded: strong effect of SIR 109 on aggressive behavior at non-sedative doses”. The ED50 ([6]; rat, read-out: CAR CD50) was 7.5 to 10 mg/kg, the ED50 ([6]; read-out: CAR ED50 (Table 4)) was 7.5 to 10 mg/kg and the “effect on conditioned avoidance response” value ([6]; rat, in words) was “somewhat less active than chlorpromazine; also recorded: about as potent as chlorpromazine”. For the same molecule, the “Inhibition (50 %) of uptake in vitro, 5-HT” value [7] was 1.3 µg/mL, the LD50 at 24 h (in vivo; ip) was 185 mg/kg and the LD50 at 24 h (in vivo; iv) was 40 mg/kg. The LD50 at 24 h (in vivo; po) was 250 mg/kg, the “acute toxicity versus CPZ” value (mice [8]) was “considerably less toxic than CPZ both after i.v., i.p. and oral administration in the mice; also recorded: considerably less toxic after acute administration” and the “threshold dose for ptosis” value (mice [9]; mouse, in vivo) was 31 mg/kg. The catatonic state (mice [9]; mouse, in vivo, po) was “did not cause any catatonic state”, the “peripheral (parasympatholytic) effects” value (pupil width (mydriasis)) was “weak peripheral effects” and the “PD200 (Table 4)” value (pupil width (mydriasis); iv, 10 min) was > 40 mg/kg. The “effect on NA turnover / selectivity versus DA turnover” value ([10]; in words) was “seems to be more selective than chlorpromazine since it influences NA turnover first at higher doses; also recorded: more selective compound than chlorpromazine since it affects NA turnover first at higher doses”, the minimal effective dose [10, 14] was 10 to 15 mg/kg and the “block of methamphetamine induced hyperactivity” value [11] was “blocked methamphetamine induced hyperactivity in mice; also recorded: about as potent as chlorpromazine”. For the same molecule, the ED50 (motor activity; mice, read-out: Motor activity ID50) was 5 mg/kg, the ED50 (motor activity; ip, i.p., mice, read-out: Motor activity ID50 (Table 4)) was 5 mg/kg and the “sedation / tranquilizing effect” value (motor activity; in words) was “tranquilizing effect of the compound; also recorded: strongly sedative or tranquilizing”. For the same molecule, the “sedation (motor activity) versus CPZ” value (motor activity; mice, in words) was “caused sedation in the mice at about the same dose as CPZ; also recorded: about as potent as chlorpromazine” and the “Inhibition (50 %) of uptake in vitro, NA” value [12] was 1.5 µg/mL.
With CN(C)CCCN1c2ccccc2Sc2ccc(Cl)cc21 [Chlorpromazine, reference compound] the Catalepsy intensity score (catalepsy [2]; in vivo) was 1.0, the ED50 (Catalepsy [3]; rat, in vivo, ip) was 7 mg/kg and the minimal effective dose ([5]; Rattus norvegicus) was 5 mg/kg. For the same molecule, the “effect on DA turnover” value [5] was “effects DA turnover at about the same dose”, the ED50 (aggressive behavior) was 2 mg/kg and the “effect on aggressive behavior” value (aggressive behavior; mice) was “effective first at sedative doses”. The ED50 ([6]; read-out: CAR ED50 (Table 4)) was 5 mg/kg, the LD50 at 24 h (in vivo; ip) was 92 mg/kg and the LD50 at 24 h (in vivo; iv) was 26 mg/kg. For the same molecule, the LD50 at 24 h (in vivo; po) was 190 mg/kg, the “threshold dose for ptosis” value (mice [9]; mice) was 4 mg/kg and the “dose from which catatonic state was prominent” value (mice [9]; orally, mouse) was ≥ 31 mg/kg. The minimal effective dose ([10]; Rattus norvegicus) was 5 mg/kg, the “block of methamphetamine induced hyperactivity” value [11] was “blocked methamphetamine induced hyperactivity in mice” and the “inhibition of learned responses” value [13] was “inhibit many different types of learned responses”.
In the case of CNC1C=CC2(CC1)c1ccccc1C=Cc1ccccc12 (stereo not drawn) [Example 12], the solubility (Solubility in water) is reported as ~10000 µg/mL (≈ 34.8 mM).
